In US20240254164A1, “PURIFICATION OF SPECIFIC TRIPEPTIDE BY ACIDIFICATION” (DSM IP Assets B.V., priority 2021, published 2024):
Blank lines part the entries; values can stand above or below the compound they belong to. Non-standard residues stand in square brackets, D forms with d. Residues, ends and D or L forms follow the SMILES beside them. Met(O2) = CS(=O)(=O)CC[C@H](N)C(=O)O

What was measured:
Type in all cases: physicochemical
[1] = Precipitation of the tripeptide from aqueous LiOH solution on acidification with HCl and cooling to 4° C.; details: 54 mg in 0.2 ml 0.1 M aqueous LiOH, pH lowered from 9 with 2M HCl, cooled to 4° C.
Procedure: 54 mg Ac-Met(O2)-Val-Val-OH have been dissolved in 0.2 ml 0.1 M aqueous LiOH. A clear solution is formed. The pH was lowered from 9 to the pH as indicated in table 1 by adding 2M HCl and cooled to a temperature of 4° C.
In example 1, a precipitation the tripeptide in fine particles at the bottom of the vessel was observed is formed which was separated by filtration over a glass frit filter.

[2] = Precipitation of acidified tripeptide dissolved in water at reflux and cooled to 4° C. (Example 2); details: pH 1.9; 67.3 g in 500 ml water at reflux, cooled to 4° C. within 2.5 hours, kept 30 minutes
Procedure: 67.3 g acidified Ac-Met(O2)-Val-Val-OH was dissolved in 500 ml water (pH 1.9 of solution) at reflux. The solution was cooled to 4° C. within 2.5 hours and kept at 4° C. during 30 minutes.

[3] = Precipitation of different acidified tripeptides from aqueous solution heated to reflux and cooled to room temperature; details: 0.5 mol/L aqueous solution, reflux, cooled to room temperature
Excerpt: Aqueous solutions of different tripeptides acidified to the pH as given in table 2 were heated to reflux temperature. The clear solutions (0.5 mol/L) have been cooled to room temperature.
The fine particles of example 3 formed at the bottom of the vessel have been collected by a filtration over a glass frit filter.

[4] = Susceptibility against oxidation by atmospheric oxygen; details: compared to the corresponding tripeptide Ac-Met-Val-Val-OH

Observation after cooling ([1]; pH 2): Fine particles formed
Observation after cooling ([1]; pH 3): Opaque solution. No particles formed
Observation after cooling [2]: fine particles formed
Observation after cooling ([3]; pH 2): Fine particles formed
Structure (SMILES): CC(=O)N[C@@H](CCS(C)(=O)=O)C(=O)N[C@H](C(=O)N[C@H](C(=O)O)C(C)C)C(C)C [Ac-Met(O2)-Val-Val-OH] (Ac-[Met(O2)]-Val-Val-OH)
Susceptibility against oxidation by atmospheric oxygen [4]: significant lower susceptibility against oxidation

Observation after cooling ([3]; pH 1.5): No particles formed
Structure (SMILES): CC(=O)N[C@@H](CCC(N)=O)C(=O)N1CCC[C@H]1C(=O)N[C@@H](C)C(=O)O [Ac-Gln-Pro-Ala-OH] (Ac-Gln-Pro-Ala-OH)

Observation after cooling ([3]; pH 0.9): No particles formed
Structure (SMILES): CC(=O)N[C@@H](CO)C(=O)N1CCC[C@H]1C(=O)N[C@@H](C)C(=O)O [Ac-Ser-Pro-Ala-OH] (Ac-Ser-Pro-Ala-OH)
